In PubChem BioAssay (NCI) one finds GI50 and TGI data, which are given here for 4 molecules.

Test in all cases: inhibition of tumour cell growth, NCI panel, 48 h
The test system of assay [1] is A549 NSCLC.
Assay [2] deals with K-562 leukemia.
For assay [3], the system named is COLO 205 colon.
Assay [4] has as its system RXF 393 renal.
Assay [5] relates to HS 578T breast.
The subject of assay [6] is SK-MEL-5 melanoma.
Assay [7] has as its system 786-0 renal.
Assay [8] concerns NCI-H226 lung.
Assay [9] concerns ACHN renal.
Assay [10] has as its system IGROV1 ovarian.

Structures are written as SMILES.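 Protocol summary: plate cells (96-well), add compound at 5 concentrations, incubate 48 h, interpolate endpoints linearly. At the GI50, growth is halved. At the TGI there is no net growth.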

In the case of `COC(=O)C1=C(O)C(C(=O)OC)[C@@]2(O)[C@@H](C(=O)OC)C(c3ccccc3Cl)C[C@@H]1[C@@H]2C(=O)OC` (stereo not given in full), the GI50 in [1] is 9.04 µM; in [2], 3.76 µM; in assay [3] it was 14.1 µM; in assay [4], 4.37 µM; in assay [5], 10.1 µM; in assay [6], 11.1 µM. Moreover, the GI50 is 5.22 µM in [7], 3.77 µM in [8], 5.96 µM in assay [9] and 3.52 µM in assay [10]. The TGI in assay [1] is 53.9 µM; in assay [2], over 100 µM; in assay [3], 31.5 µM; in [4], 35.4 µM; in assay [5], 43.7 µM; in [6], 24.2 µM. The TGI in [7] was 19.5 µM; in assay [8] it was 15.1 µM; in [9] it was 23.4 µM; in [10] it was 13 µM.
For `NC(N)=N/N=C/c1ccc(Br)cc1`, the GI50 in assay [1] was 6.46 µM; in assay [2], 3.72 µM; in assay [3], 2.99 µM; in [4], 3.68 µM; in [5], 3.33 µM; in assay [6], 2.36 µM. Besides, the GI50 in [7] is 5.11 µM; in assay [8] it was 5.15 µM; in [9], 7.2 µM; in assay [10], 4.91 µM. Besides, the TGI in [1] was 23.4 µM; in assay [2], over 100 µM; in assay [3], 7.21 µM; in assay [4] it was 12.3 µM; in assay [5] it was 10.2 µM; in assay [6], 9.28 µM. Also, the TGI was determined as 17.7 µM in [7], 17.4 µM in assay [8], 20.1 µM in [9] and 24.2 µM in assay [10].
As to `CCCCCCCCCCCCCCCC(N)c1ccccc1` (stereo not given), the GI50 in assay [1] was 1.78 µM; in [2], 1.89 µM; in [3], 1.68 µM; in assay [4] it was 1.71 µM; in [5], 2.02 µM; in [6], 1.67 µM. Further, the GI50 was 1.68 µM in [7], 1.91 µM in [8], 1.79 µM in assay [9] and 1.78 µM in assay [10]. Also, the TGI in [1] came out at 3.56 µM; in assay [2], 4.2 µM; in [3], 3.14 µM; in assay [4], 3.41 µM; in [5], 4.64 µM; in assay [6] it was 3.23 µM. For the same molecule, the TGI turned out to be 3.27 µM in assay [7], 3.69 µM in [8], 3.34 µM in [9] and 3.44 µM in [10].
Regarding `O=C1CC2OCC=C3CN4CCC56c7ccccc7N1C5C2C3CC46` (stereo not given) (tested in a mixture with another compound), the GI50 was over 50 µg/mL in [1]; 3.44 µg/mL in assay [2]; over 50 µg/mL in assay [3]; over 50 µg/mL in assay [4]; over 50 µg/mL in [5]; over 50 µg/mL in assay [6]. The GI50 in assay [7], in [8], in [9] and in assay [10] was over 50 µg/mL each time. The TGI in assay [1], in assay [2], in [3], in assay [4], in assay [5] and in [6] was over 50 µg/mL each time. Further, the TGI in assay [7], in [8], in assay [9] and in assay [10] was over 50 µg/mL in each case.
